Read-outs that look alike come from different tables or passages of the source.
Key:
PK study in ICR mice = assay type: in vivo, mouse; details: plasma, route and dose not given
Description: 6 ICR mice (male/female) were divided into two groups, administered orally and intravenously, respectively, with 3 mice/group. The mice were fasted for 10-14 hours prior to dosing with free access to water.
The test compound was weighed according to the administration dose, and prepared into a dose formulation at appropriate concentrations (for rats and mice, intravenous and oral administration at a volume of 5 mL/kg and 10 mL/kg, respectively), wherein the intravenous injection was a clear solution, and the oral preparation was a clear solution or a homogeneous suspension.
Animals were dosed by intravenous injection and oral gavage, and blood samples were collected at 0.033, 0.083, 0.25, 0.5, 1, 2, 4, 8, and 24 h after intravenous administration and 0.083, 0.25, 0.5, 1, 2, 4, 6, 8, and 24 h after oral administration. Whole blood was centrifuged at 6800 g for 6 min at 4° C. and the top plasma was stored in a −80° C. freezer for later analysis.
The DMSO stock solution of the test compound was diluted into a series of working solutions with a methanol or an acetonitrile solution, and added to a blank plasma matrix, and standard curves were generated and quality control samples were prepared. An appropriate volume of the plasma sample was taken and a suitable multiple of methanol or acetonitrile containing an internal standard was added for protein precipitation based on the response. After centrifugation of all samples at 18000 g for 10 min at 4° C., an appropriate amount of supernatant was taken for LC-MS/MS injection analysis.
Drug concentration-time curves in plasma were plotted according to test concentrations, and pharmacokinetic parameters were calculated using noncompartmental analysis by WinNonlin software, including: half-life (T½), area under the concentration-time curve from time zero to time t (AUCO-t), clearance (CL), volume of distribution at steady state (Vss) and bioavailability (F), with some of the test results shown in Table 4.

KIF18A = KIF18A (Homo sapiens (Human), UniProt Q8NI77); experiment: KIF18A ATPase activity under tubulin stimulation (ADP-Glo assay); assay type: biochemical; details: KIF18A 30 nM, ATP 150 μM, pig microtubules
KIF18A, sequence (Q8NI77 whole entry): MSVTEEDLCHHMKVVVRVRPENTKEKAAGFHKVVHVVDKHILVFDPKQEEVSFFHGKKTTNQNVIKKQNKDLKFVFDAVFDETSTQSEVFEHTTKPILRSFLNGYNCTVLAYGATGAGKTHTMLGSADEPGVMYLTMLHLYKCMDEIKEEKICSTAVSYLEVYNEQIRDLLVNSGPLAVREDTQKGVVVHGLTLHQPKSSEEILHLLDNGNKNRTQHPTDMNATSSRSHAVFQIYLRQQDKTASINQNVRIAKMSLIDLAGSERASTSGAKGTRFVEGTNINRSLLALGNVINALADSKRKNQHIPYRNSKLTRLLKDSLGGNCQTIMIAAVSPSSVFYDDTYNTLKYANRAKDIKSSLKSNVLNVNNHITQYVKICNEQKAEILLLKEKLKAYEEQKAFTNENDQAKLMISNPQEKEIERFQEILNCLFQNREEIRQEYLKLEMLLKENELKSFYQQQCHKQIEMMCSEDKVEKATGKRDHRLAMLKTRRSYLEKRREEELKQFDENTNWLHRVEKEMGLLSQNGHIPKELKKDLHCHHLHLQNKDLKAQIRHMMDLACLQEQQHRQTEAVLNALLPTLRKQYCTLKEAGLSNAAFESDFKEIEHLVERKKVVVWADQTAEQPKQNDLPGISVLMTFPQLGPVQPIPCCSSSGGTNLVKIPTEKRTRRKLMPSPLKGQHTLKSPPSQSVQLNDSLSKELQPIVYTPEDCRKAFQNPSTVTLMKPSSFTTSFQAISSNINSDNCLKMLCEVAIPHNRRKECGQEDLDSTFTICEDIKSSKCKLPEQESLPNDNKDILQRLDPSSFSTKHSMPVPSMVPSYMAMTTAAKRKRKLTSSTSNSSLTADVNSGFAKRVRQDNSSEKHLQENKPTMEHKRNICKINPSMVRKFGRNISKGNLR
KIF18A, sequence (P02550 whole entry partner): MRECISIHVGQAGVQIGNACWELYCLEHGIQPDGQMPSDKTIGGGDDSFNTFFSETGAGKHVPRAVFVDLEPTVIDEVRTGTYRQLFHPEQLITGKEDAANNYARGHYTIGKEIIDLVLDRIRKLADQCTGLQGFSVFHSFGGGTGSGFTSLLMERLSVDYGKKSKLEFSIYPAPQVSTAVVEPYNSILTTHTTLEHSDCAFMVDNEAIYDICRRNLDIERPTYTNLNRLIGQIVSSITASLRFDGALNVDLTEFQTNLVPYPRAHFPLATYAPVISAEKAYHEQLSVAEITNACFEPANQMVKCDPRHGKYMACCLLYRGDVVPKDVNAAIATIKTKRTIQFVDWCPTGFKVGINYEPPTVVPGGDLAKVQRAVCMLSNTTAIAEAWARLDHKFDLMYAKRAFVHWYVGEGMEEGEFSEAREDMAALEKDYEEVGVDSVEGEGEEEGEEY
KIF18A, sequence (P02554 whole entry partner): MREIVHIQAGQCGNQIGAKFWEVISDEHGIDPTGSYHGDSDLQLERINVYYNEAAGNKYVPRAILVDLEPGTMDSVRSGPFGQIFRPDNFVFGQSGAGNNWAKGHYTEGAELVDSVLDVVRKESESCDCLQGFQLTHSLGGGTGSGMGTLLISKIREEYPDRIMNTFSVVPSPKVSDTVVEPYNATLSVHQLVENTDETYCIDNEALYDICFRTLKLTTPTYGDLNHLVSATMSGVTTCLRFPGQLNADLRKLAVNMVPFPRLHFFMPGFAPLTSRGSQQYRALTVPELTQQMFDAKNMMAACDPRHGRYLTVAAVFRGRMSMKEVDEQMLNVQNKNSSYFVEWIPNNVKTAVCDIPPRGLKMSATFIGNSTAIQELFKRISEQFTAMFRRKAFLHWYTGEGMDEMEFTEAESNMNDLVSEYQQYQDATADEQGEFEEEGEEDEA

OVCAR-3 cells = experiment: OVCAR-3 cell proliferation (Cell Titer-Glo, 10 days); assay type: cell-based, human
In short: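 400 cells per well were seeded onto pre-dispensed compound (final 0.12 nM to 10 μM) in RPMI-1640 with 20% FBS and insulin, then co-cultured for 10 days. Viability was read as Cell Titer-Glo luminescence, inhibition was taken against 0.1% DMSO control, and IC50 came from nonlinear concentration-inhibition regression.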

HT-29 cells = experiment: HT-29 cell proliferation (Cell Titer-Glo, 6 days); assay type: cell-based
Description: The inhibitory effect on the KIF18A target by the compounds of the present disclosure was evaluated by testing the inhibitory effect on proliferation of HT-29 cells by the compounds of the present disclosure.
HT-29 (ATCC, HTB-38) cells were cultured in McCoy's 5a complete medium (Gibco, 12330-031) containing 10% fetal bovine serum (Gibco, 10099-141C), 100 U penicillin and […] streptomycin (Gibco, 15140-122). The Promega kit Cell Titer-Glo (Promega: G7572) was used in this method for test. • 1. HT-29 cells were cultured in T75 cell flasks (Corning, 430641) and the medium was placed in a 37° C., 5% CO2 incubator. Cells were passaged when reaching a cell density of 70%-80%, approximately twice per week. • 2. To perform the experiment, the test compounds were dissolved in DMSO to prepare a 10 mM stock solution, and the test compounds were added to the 384-well cell test plate (Corning, 3765) at the predetermined concentration using ECHO. • 3. The cell culture flask was taken out, the medium was removed, and the cells were rinsed with PBS. Then 2 mL of trypsin (with 0.25% EDTA) was added, and the flask was placed in the incubator for digestion for 4 minutes. • 4. Digestion was stopped by adding 4 mL of complete medium and the cell suspension was transferred to a centrifuge tube and centrifuged at 1000 rpm for 4 minutes. • 5. The cells were resuspended in 6 mL of complete medium, followed by cell counting. The cell density was adjusted to 4,170 cells/mL, and the cells were added to a 384-well plate at 60 μL/well. • 6. The 384-well plate was centrifuged at 500 rpm for 1 minute, and then placed in a 37° C., 5% CO2 incubator for 6 days of cultivation. • 7. Six days later, the cell culture plate was equilibrated for 10 minutes at room temperature, 25 μL of Cell Titer-Glo was added to each well, and the mixture was shaken and mixed well and let stand for 5 minutes. The luminescence values for samples in various wells were read using a microplate reader in Luminescence mode.
The percentage of inhibition of cell proliferation by the test compound at each concentration was calculated by comparing with the values of the control group (0.3% DMSO). The IC50 values of the compounds were obtained by concentration-inhibition rate nonlinear regression analysis of the test compounds using GraphPad Prism 9.

[1] = both sexes, mouse, read-out: AUC
[2] = both sexes, mouse, read-out: Cmax

SMILES | IC50 (KIF18A) [nM] | IC50 (HT-29 cells; Homo sapiens, HT-29, 144 h) [nM] | IC50 (HT-29 cells) [nM] | IC50 (OVCAR-3 cells) [nM] | AUC (PK study in ICR mice) [ng·h/mL] | Cmax (PK study in ICR mice) [ng/mL] | AUC (PK study in ICR mice; [1]) [ng·h/mL] | Cmax (PK study in ICR mice; [2]) [ng/mL] | IC50 (OVCAR-3 cells; Homo sapiens, OVCAR-3, 240 h) [nM]
O=C(Nc1cccc2c1nc1n2CCOC1)c1ccc(NS(=O)(=O)CCO)cc1N1CCC(=C(F)F)CC1 [Example 322, 2-(4-(difluoromethylene)piperidin-1-yl)-N-(3,4-dihydro-1H-benzo[4,5]imidazo[2,1-c][1,4]oxazin-9-yl)-4-((2-hydroxyethyl)sulfonamido)benzamide] | ≤ 50 |  |  |  |  |  | 12400 | 2420 | ≤ 50
O=C(Nc1cccc2c1cc1n2CCC(F)(F)C1O)c1ccc(NS(=O)(=O)CCO)cc1N1CCC2(CC1)CC2 (single isomer, unassigned) [Compound 384-P1, N-(8,8-difluoro-9-hydroxy-6,7,8,9-tetrahydropyridino[1,2-a]indol-1-yl)-4-((2-hydroxyethyl)sulfonamido)-2-(6-azaspiro[2.5]oct-6-yl)benzamide] | ≤ 50 | ≤ 200 |  |  |  |  | 1290 | 366 | ≤ 50
O=C(Nc1cccc2c1cc1n2CCC(F)(F)C1O)c1ccc(NS(=O)(=O)CCO)cc1N1CCC2(CC1)CC2 (single isomer, unassigned) [Compound 384-P2, N-(8,8-difluoro-9-hydroxy-6,7,8,9-tetrahydropyridino[1,2-a]indol-1-yl)-4-((2-hydroxyethyl)sulfonamido)-2-(6-azaspiro[2.5]oct-6-yl)benzamide] | 50 to 500 |  | ≤ 200 | ≤ 50 |  |  |  |  | 
CNc1cc(NS(=O)(=O)CCO)cc(N2CCC3(CC2)CC3)c1C(=O)Nc1ccc(OC)c(N2CCC(F)(F)CC2)n1 [Example 491, N-(6-(4,4-difluoropiperidin-1-yl)-5-methoxypyridin-2-yl)-4-((2-hydroxyethyl)sulfonamido)-2-(methylamino)-6-(6-azaspiro[2.5]oct-6-yl)benzamide] | 50 to 500 |  |  |  |  |  | 24800 | 2300 | ≤ 50
CC1(C)OCCn2c1cc1c(NC(=O)c3ccc(NS(=O)(=O)CCO)cc3N3CCC4(CC3)CC4)cccc12 [Compound 396, N-(1,1-dimethyl-3,4-dihydro-1H-[1,4]oxazino[4,3-a]indol-9-yl)-4-((2-hydroxyethyl)sulfonamido)-2-(6-azaspiro[2.5]octan-6-yl)benzamide] | 50 to 500 | ≤ 200 |  |  |  |  |  |  | ≤ 50
CC1=CCCn2c1cc1c(NC(=O)c3ccc(NS(=O)(=O)CCO)cc3N3CCC4(CC3)CC4)cccc12 [Compound 410, 4-(2-hydroxyethyl)sulfonamido-N-(9-methyl-6,7-dihydropyridino[1,2-a]indol-1-yl)-2-(6-azaspiro[2.5]octan-6-yl)benzamide] | 50 to 500 | ≤ 200 |  |  |  |  | 16400 | 2790 | ≤ 50
[2H]C([2H])([2H])OC1c2cc3c(NC(=O)c4ccc(NS(=O)(=O)CCO)cc4N4CCC(=C(F)F)CC4)cccc3n2CCC1(F)F (single isomer, unassigned) [Compound 386-P2, N-(8,8-difluoro-9-(methoxy-d3)-6,7,8,9-tetrahydropyridino[1,2-a]indol-1-yl)-2-(4-(difluoromethylene)piperidin-1-yl)-4-((2-hydroxyethyl)sulfonamido)benzamide] | ≤ 50 |  | ≤ 200 | 50 to 500 |  |  |  |  | 
CCOc1ccc(NC(=O)c2ccc(NS(=O)(=O)CCO)cc2N2CCC3(CC2)CC3)c2cc3n(c12)CC(C)(C)OC3 [Example 535, N-(6-ethoxy-3,3-dimethyl-3,4-dihydro-1H-[1,4]oxazino[4,3-a]indol-9-yl)-4-((2-hydroxyethyl)sulfonamido)-2-(6-azaspiro[2.5]octan-6-yl)benzamide] | 50 to 500 |  |  |  |  |  | 101000 | 8370 | ≤ 50
[2H]C([2H])([2H])OC1c2cc3c(NC(=O)c4ccc(NS(=O)(=O)CCO)cc4N4CCC5(CC4)CC5)cccc3n2CCC1(F)F (stereo not shown) [Compound 385, N-(8,8-difluoro-9-(methoxy-d3)-6,7,8,9-tetrahydropyridino[1,2-a]indol-1-yl)-4-((2-hydroxyethyl)sulfonamido)-2-(6-azaspiro[2.5]oct-6-yl)benzamide] | 50 to 500 | ≤ 200 |  | ≤ 50 |  |  |  |  | 
[2H]C([2H])([2H])OC1c2cc3c(NC(=O)c4ccc(NS(=O)(=O)CCO)cc4N4CCC5(CC4)CC5)cccc3n2CCC1(F)F (single isomer, unassigned) [Compound 385-P2, N-(8,8-difluoro-9-(methoxy-d3)-6,7,8,9-tetrahydropyridino[1,2-a]indol-1-yl)-4-((2-hydroxyethyl)sulfonamido)-2-(6-azaspiro[2.5]oct-6-yl)benzamide] |  |  | ≤ 200 | ≤ 50 |  |  |  |  | 
[2H]C([2H])([2H])OC1c2cc3c(NC(=O)c4ccc(NS(=O)(=O)CCO)cc4N4CCC(=C(F)F)CC4)cccc3n2CCC1(F)F (stereo not shown) [Compound 386, N-(8,8-difluoro-9-(methoxy-d3)-6,7,8,9-tetrahydropyridino[1,2-a]indol-1-yl)-2-(4-(difluoromethylene)piperidin-1-yl)-4-((2-hydroxyethyl)sulfonamido)benzamide] | 50 to 500 | 200 to 1000 |  | 50 to 500 |  |  |  |  | 

Continued, in another order:

IC50 (KIF18A) [nM] | IC50 (HT-29 cells; Homo sapiens, HT-29, 144 h) [nM] | IC50 (HT-29 cells) [nM] | IC50 (OVCAR-3 cells) [nM] | AUC (PK study in ICR mice) [ng·h/mL] | Cmax (PK study in ICR mice) [ng/mL] | SMILES | AUC (PK study in ICR mice; [1]) [ng·h/mL] | Cmax (PK study in ICR mice; [2]) [ng/mL] | IC50 (OVCAR-3 cells; Homo sapiens, OVCAR-3, 240 h) [nM]
≤ 50 | 200 to 1000 |  |  |  |  | O=C(Nc1cccc2c1cc1n2CC2(CC2)OC1)c1ccc(NS(=O)(=O)CCO)cc1N1CCC(=C(F)F)CC1 [Example 485, 2-(4-(difluoromethylene)piperidin-1-yl)-4-((2-hydroxyethyl)sulfonamido)-N-(1′H,4′H-spiro[cyclopropane-1,3′-[1,4]oxazino[4,3-a]indole]-9′-yl)benzamide] | 33300 | 3740 | 50 to 500
50 to 500 |  |  |  |  |  | O=C(Nc1ccc(OC(F)F)c2c1cc1n2CCC(F)(F)C1)c1ccc(NS(=O)(=O)CCO)cc1N1CCC2(CC1)CC2 [Example 583] | 43300 | 4410 | ≤ 50
≤ 50 |  | ≤ 200 | ≤ 50 |  |  | O=C(Nc1ccnc2c1cc1n2CCC(F)(F)C1)c1ccc(NS(=O)(=O)CCO)cc1N1CCC2(CC1)CC2 [Example 380, N-(7,7-difluoro-6,7,8,9-tetrahydropyridin[3,2-b]indolizin-4-yl)-4-((2-hydroxyethyl)sulfonamido)-2-(6-azaspiro[2.5]oct-6-yl)benzamide] |  |  | 
≤ 50 |  |  | ≤ 50 | 4113 | 762 | O=C(Nc1ccc(F)c2c1nc1n2CCOC1)c1ccc(NS(=O)(=O)CCO)cc1N1CCC(=C(F)F)CC1 [Example 323, 2-(4-(difluoromethylene)piperidin-1-yl)-N-(6-fluoro-3,4-dihydro-1H-benzo[4,5]imidazo[2,1-c][1,4]oxazin-9-yl)-4-((2-hydroxyethyl)sulfonamide)benzamide] |  |  | 
≤ 50 |  | 200 to 1000 | ≤ 50 |  |  | O=C(Nc1ccnc2c1cc1n2CCC(F)(F)C1)c1ccc(NS(=O)(=O)CCO)cc1N1CCC(=C(F)F)CC1 [Example 376] |  |  | 

Reference: patent publication US20260070887A1 (Shenzhen Zhongge Biological Technology Co., Ltd., priority 2022, published 2026)
